{"source": "patent US10851069B2", "about": "“Compositions of crystallized hydrophobic compounds and methods of making and using same” (Massachusetts Institute of Technology, priority 2016, dated 2020)", "key": {"rat Pdx1": {"test_system": "rat Pdx1", "assay": "qPCR of explanted capsules, rat islet function/viability marker", "format": "in vivo", "conditions": "explanted at approximately 430 (amorphous) or 460 (crystalline) days post-transplant", "description": "Total RNA was isolated from fibrosed spheres (with adhered tissue and immune overgrowth, if present), liquid nitrogen snap-frozen immediately following excision, using TRIzol (Invitrogen, Carlsbad, Calif.) according to the manufacturer's instructions. In addition, to help ensure complete tissue disruption, we also employed strong mechanical disruption with a Polytron homogenizer. Thus, gene expression signatures shown throughout are proportional and representative of the entire cell population present on and/or around retrieved materials. […] Mouse (5′-[…]-3′ (SEQ. ID. No.:1); reverse: 5′-CGGGTTCCGCTGTGTAAG-3′ (SEQ. ID. No.:2)) and rat (5′-CTCTCGTGCCATGTGAACC-3′ (SEQ. ID. No.:3); reverse: 5′-[…]-3′ (SEQ. ID. No.:4)) Pdx1 primers were designed using Primer Express software (Applied Biosystems, Carlsbad, Calif., USA) and evaluated using LaserGene software (DNAStar, Madison, Wis., USA) to ensure species rat (encapsulated islet) or mouse (host)-specificity, and normalized to mouse (5′-[…]-3′ (SEQ. ID. No.:5); reverse: 5′-[…]-3′ (SEQ. ID. No.:6)) and rat (5′-[…]-3′ (SEQ. ID. No.:7); reverse: 5′-[…]-3′ (SEQ. ID. No.:8)) Beta-actin, respectively. […] Results were analyzed using the comparative CT (ΔΔCT) method as described by the manufacturer. […]"}, "[1]": {"assay": "Drug extraction (HPLC) of retrieved capsules, remaining loaded drug", "format": "in vivo, C57BL/6 mice", "conditions": "crystalline, co-encapsulated with islets, after 460 days compared to 6 months (180 days)", "protocol": "Calibration curves were obtained on an Agilent LC 1100 Series (Agilent Technologies, CA, USA) equipped with binary pump ([…] Å), auto-sampler (G1313 Å), degasser and photodiode detector (DAD, […] Å). Chemstation was used for system control, data processing and data acquisition for LC. Chromatographic separation was achieved by an analytical Waters Atlantis T3 C18 column (5 μm, 4.6×250 mm). The temperature of column and auto-sampler were kept at 20° C. Stock solution of GW2580 was prepared in dimethyl sulfoxide (DMSO) at a target concentration of 10 mg/ml and appropriate dilutions were made in DMSO to prepare standards (0.25-2500 μg/ml) for calibration curve of GW2580. 10 μl of standard solution was injected and the analytes were eluted by gradient mode using (A) acetonitrile and (B) 0.1% formic acid in water at a constant flow rate of 1 ml/min. The gradient conditions of mobile phase were as follows: 0 min 10% A, 10 min 95% A, 14 min 95% A, 16 min 10% A, 20 min 10% A. Stock solution of curcumin was prepared in dimethyl sulfoxide (DMSO) at a target concentration of 10 mg/ml and appropriate dilutions were made in DMSO to prepare standards (0.05-500 μg/ml) for calibration curve of curcumin. 10 μl of standard solution was injected and the analytes were eluted by gradient mode using (A) acetonitrile and (B) 0.1% formic acid in water at a constant flow rate of 1 ml/min. […]"}, "[2]": {"test_system": "inflammatory macrophage markers Sphk1, TNFα, Arg1, IL1", "assay": "NanoString multiplexed gene expression analysis of retrieved capsules", "format": "in vivo, C57BL/6 mice", "conditions": "amorphous drug-loaded capsules, 2 weeks IP; CSF1R-targeting agents compared", "protocol": "RNAs for mock-implanted (mock) controls, or for various drug-loaded 0.5 mm diameter alginate sphere-bearing mice (n=4/group) were isolated from tissue samples taken at various time points after implantation, as described. Respective RNAs were quantified, diluted to the appropriate concentration (100 ng/μl), and then 500 ng of each sample was processed according to NanoString manufacturer protocols for expression analysis via our customized multiplexed gene mouse macrophage subtyping panel. RNA levels (absolute copy numbers) were obtained following nCounter (NanoString Technologies Inc., Seattle, Wash.) quantification, and group samples were analyzed using nSolver analysis software (NanoString Technologies Inc., Seattle, Wash.)."}}, "data": [{"smiles": "COc1ccc(COc2ccc(Cc3cnc(N)nc3N)cc2OC)cc1", "note": "[GW2580, 5-[[3-Methoxy-4-[(4-methoxyphenyl)methoxy]phenyl]methyl]-2,4-pyrimidinediamine]", "values": [{"measurement": "Pdx1 expression, crystal versus amorphous capsules", "setting": "rat Pdx1", "value": "approximately 30 fold"}, {"measurement": "drug remaining in retrieved capsules", "setting": "[1]", "value": "significantly larger amount"}, {"measurement": "gene expression responses", "setting": "[2]", "value": "almost identical gene expression responses"}]}]}
